Source: patent US9416141B2 (University of Washington through its Center for …, priority 2012, dated 2016)
pEC50: −log10 of the molar value. Structures can show the parent of a compound that is named as a salt.

System: hair cells
Test: Hair cell toxicity assay in zebrafish (neomycin-induced hair cell death, DASPEI staining of neuromasts)
Type: in vivo
Details: Danio rerio; for Emax at 2.8 µM: maximum observed @ 2.8 μM test compound; for pEC50: zebrafish larvae 5-7 dpf, 1 h pre-treatment, then 200 micromolar neomycin + test compound 30 min, read-out: HC50 (concentration that would produce 50% hair cell survival); for Emax at 25 µM: maximum observed @ 25 μM test compound; for Emax at 8.3 µM: maximum observed @ 8.3 μM test compound
How it was run: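 Zebrafish larvae 5-7 dpf pre-treated 1 h with compound (0.010-25 μM), then 30 min with 200 μM neomycin plus compound. DASPEI stained 10 neuromasts per fish, scored 0-2 (total 0-20), normalised to vehicle controls as % hair cell survival. HC50 linearly interpolated if survival reached ≥50%; HCmax is maximum survival.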

[1] = 200 micromolar neomycin, read-out: Max HC Protection (HCmax, % hair cell survival)

Structure (SMILES)	Emax at 2.8 µM [1] [%]	pEC50	Emax at 25 µM [1] [%]	Emax at 8.3 µM [1] [%]	Emax at 3 µM (maximum observed @ 03 μM test compound, 200 micromolar neomycin, read-out: Max HC Protection (HCmax, % hair cell survival)) [%]
CN(C)C(=O)CCC[N+]1(C)CCc2c(sc(NC(=O)Nc3ccc(Cl)cc3)c2C(N)=O)C1 (stereo not drawn) [Example 165, 3-Carbamoyl-2-[3-(4-chlorophenyl)ureido]-6-[4-(dimethylamino)-4-oxobutyl]-6-methyl-4,5,6,7-tetrahydrothieno[2,3-c]pyridin-6-ium trifluoroacetate]	52	5.00 to 6.00	–	–	–
CC(C)C[N+]1(C)CCc2c(sc(NC(=O)Nc3ccc(Cl)cc3)c2C(N)=O)C1 (stereo not drawn) [Example 135, 3-carbamoyl-2-[3-(4-chlorophenyl)ureido]-6-isobutyl-6-methyl-4,5,6,7-tetrahydrothieno[2,3-c]pyridin-6-ium iodide]	–	> 6.00	107	–	–
NC(=O)c1c(NC(=O)Nc2ccc(I)cc2)sc2c1CCN(CCCOCc1ccccc1)C2 [Example 207]	–	5.00 to 6.00	66	–	–
CC[N+]1(C)CCc2c(sc(NC(=O)Nc3ccc(Cl)cc3)c2C(N)=O)C1 (stereo not drawn) [Example 136, 3-Carbamoyl-2-[3-(4-chlorophenyl)ureido]-6-ethyl-6-methyl-4,5,6,7-tetrahydrothieno[2,3-c]pyridin-6-ium iodide]	–	5.00 to 6.00	76	–	–
NC(=O)c1c(NC(=O)Nc2ccc(Cl)cc2)sc2c1CCN(CCO)C2 [Example 60, 2-[3-(4-Chlorophenyl)ureido]-6-(2-hydroxyethyl)-4,5,6,7-tetrahydrothieno[2,3-c]pyridine-3-carboxamide hydrochloride]	–	5.00 to 6.00	71	–	–
CC(C)(C)OC(=O)CC[N+]1(C)CCc2c(sc(NC(=O)Nc3ccc(Cl)cc3)c2C(N)=O)C1 (stereo not drawn) [Example 151, 6-(3-tert-Butoxy-3-oxopropyl)-3-carbamoyl-2-[3-(4-chlorophenyl)ureido]-6-methyl-4,5,6,7-tetrahydrothieno[2,3-c]pyridin-6-ium iodide]	105	> 6.00	–	–	–
NC(=O)c1c(NC(=O)Nc2ccc(Cl)cc2)sc2c1CC1CCC2N1 (racemic) [Example 122, (+/−)-2-[3-(4-chlorophenyl)ureido]-5,6,7,8-tetrahydro-4H-5,8-epiminocyclohepta[b]thiophene-3-carboxamide hydrochloride]	–	> 6.00	91	–	–
CC[N+]1(C)CCc2c(sc(NC(=O)Nc3ccc(C#N)cc3)c2C(N)=O)C1 (stereo not drawn) [Example 150, 3-Carbamoyl-2-[3-(4-cyanophenyl)ureido]-6-ethyl-6-methyl-4,5,6,7-tetrahydrothieno[2,3-c]pyridin-6-ium iodide]	–	–	43	–	–
CC[N+]1(C)CCc2c(sc(NC(=O)Nc3ccc(Cl)cc3)c2C(=O)N2CCOCC2)C1 (stereo not drawn) [Example 179, 2-[3-(4-Chlorophenyl)ureido]-6-ethyl-6-methyl-3-(morpholine-4-carbonyl)-4,5,6,7-tetrahydrothieno[2,3-c]pyridin-6-ium chloride]	–	–	–	38	–
NC(=O)c1c(NC(=O)Nc2ccc(Cl)cc2)sc2c1CCN(CC1CC1)C2 [Example 1, 2-[3-(4-chlorophenyl)ureido]-6-(cyclopropylmethyl)-4,5,6,7-tetrahydrothieno[2,3-c]pyridine-3-carboxamide hydrochloride]	–	5.00 to 6.00	92	–	–
CN1CCC(N2CCc3c(sc(NC(=O)Nc4ccc(Cl)cc4)c3C(N)=O)C2)C1 (racemic) [Example 9, (+/−)-2-[3-(4-Chlorophenyl)ureido]-6-(1-methylpyrrolidin-3-yl)-4,5,6,7-tetrahydrothieno[2,3-c]pyridine-3-carboxamide dihydrochloride]	–	5.00 to 6.00	82	–	–
C[N+]1(CC2CCC2)CCc2c(sc(NC(=O)Nc3ccc4ccccc4c3)c2C(N)=O)C1 (stereo not drawn) [Example 176, 3-Carbamoyl-6-(cyclobutylmethyl)-6-methyl-2-[3-(naphthalen-2-yl)ureido]-4,5,6,7-tetrahydrothieno[2,3-c]pyridin-6-ium iodide]	–	> 6.00	–	100	–
NC(=O)c1c(NC(=O)Nc2ccc(Cl)cc2)sc2c1CCN(CCCNC(=O)CCc1ccccc1)C2 [Example 210, 2-{[(4-chlorophenyl)carbamoyl]amino}-6-[3-(3-phenylpropanamido)propyl]-4H,5H,6H,7H-thieno[2,3-c]pyridine-3-carboxamide]	–	> 6.00	99	–	–
CC[N+]1(C)C2CCC1c1sc(NC(=O)Nc3ccc(Cl)cc3)c(C(N)=O)c1C2 (racemic) [Example 187, (+/−)-3-Carbamoyl-2-[3-(4-chlorophenyl)ureido]-9-ethyl-9-methyl-5,6,7,8-tetrahydro-4H-thienocyclohepten-5,8-iminium chloride]	–	5.00 to 6.00	72	–	–
CCN1Cc2sc(NC(=O)Nc3ccc(Cl)cc3)c(C(N)=O)c2C1 [Example 28, 2-[3-(4-Chlorophenyl)ureido]-5-ethyl-5,6-dihydro-4H-thieno[2,3-c]pyrrole-3-carboxamide hydrochloride]	–	5.00 to 6.00	–	58	–
CCOC(=O)CCC[N+]1(C)CCc2c(sc(NC(=O)Nc3ccc(Cl)cc3)c2C(N)=O)C1 (stereo not drawn) [Example 161, 3-Carbamoyl-2-[3-(4-chlorophenyl)ureido]-6-(4-ethoxy-4-oxobutyl)-6-methyl-4,5,6,7-tetrahydrothieno[2,3-c]pyridin-6-ium iodide]	87	> 6.00	–	–	–
CC(C)(C)OC(=O)CCCN1CCc2c(sc(NC(=O)Nc3ccc(Cl)cc3)c2C(N)=O)C1 [Example 14, tert-Butyl 4-{3-carbamoyl-2-[3-(4-chlorophenyl)ureido]-4,5-dihydrothieno[2,3-c]pyridin-6(7H)-yl}butanoate]	–	> 6.00	–	83	–
C[N+]12CCCCC1c1sc(NC(=O)Nc3ccc(Cl)cc3)c(C(N)=O)c1CC2 (racemic) [Example 178, (+/−)-3-Carbamoyl-2-[3-(4-chlorophenyl)ureido]-6-methyl-4,5,6,7,8,9,10,10a-octahydrothieno[2,3-a]quinolizin-6-ium chloride]	–	5.00 to 6.00	102	–	–
NC(=O)c1c(NC(=O)Nc2ccc(Cl)cc2)sc2c1CCN(CCCC(=O)O)C2 [Example 13, 4-{3-Carbamoyl-2-[3-(4-chlorophenyl)ureido]-4,5-dihydrothieno[2,3-c]pyridin-6(7H)-yl}butanoic acid hydrochloride]	–	–	–	17	–
CC[N+]1(C)CCCc2c(sc(NC(=O)Nc3ccc(Cl)cc3)c2C(N)=O)C1 (stereo not drawn) [Example 173, 3-Carbamoyl-2-[3-(4-chlorophenyl)ureido]-7-ethyl-7-methyl-5,6,7,8-tetrahydro-4H-thieno[2,3-c]azepin-7-ium iodide]	–	5.00 to 6.00	102	–	–
CON=C1CCc2c(sc(NC(=O)Nc3ccc(Cl)cc3)c2C(N)=O)C1 (single isomer, unassigned) [Example 121, 2-[3-(4-chlorophenyl)ureido]-6-(methoxyimino)-4,5,6,7-tetrahydrobenzo[b]thiophene-3-carboxamide]	–	–	–	–	6
CC[N+]1(C)CCc2sc(NC(=O)Nc3ccc(Cl)cc3)c(C(N)=O)c2CC1 (stereo not drawn) [Example 174, 3-Carbamoyl-2-[3-(4-chlorophenyl)ureido]-6-ethyl-6-methyl-5,6,7,8-tetrahydro-4H-thieno[2,3-d]azepin-6-ium iodide]	–	5.00 to 6.00	74	–	–
CCN1CCc2c(sc(NC(=O)Nc3ccc(Cl)cc3)c2C(=O)NCCN2CCOCC2)C1 [Example 100, 2-[3-(4-Chlorophenyl)ureido]-6-ethyl-N-(2-morpholinoethyl)-4,5,6,7-tetrahydrothieno[2,3-c]pyridine-3-carboxamide dihydrochloride]	–	5.00 to 6.00	59	–	–
CC(C)NC(=O)CCC[N+]1(C)CCc2c(sc(NC(=O)Nc3ccc(Cl)cc3)c2C(N)=O)C1 (stereo not drawn) [Example 166, 3-Carbamoyl-2-[3-(4-chlorophenyl)ureido]-6-[4-(isopropylamino)-4-oxobutyl]-6-methyl-4,5,6,7-tetrahydrothieno[2,3-c]pyridin-6-ium trifluoroacetate]	63	5.00 to 6.00	–	–	–
NC(=O)c1c(NC(=O)Nc2ccc(Cl)cc2)sc2c1CCN(CCCNC(=O)CCc1c[nH]c3ccccc13)C2 [Example 209, 2-{[(4-chlorophenyl)carbamoyl]amino}-6-{3-[3-(1H-indol-3-yl)propanamido]propyl}-4H,5H,6H,7H-thieno[2,3-c]pyridine-3-carboxamide]	98	> 6.00	–	–	–
CCN1CCc2c(sc(NC(=O)Nc3ccc(Cl)cc3)c2C(=O)NCCO)C1 [Example 101, 2-[3-(4-Chlorophenyl)ureido]-6-ethyl-N-(2-hydroxyethyl)-4,5,6,7-tetrahydrothieno[2,3-c]pyridine-3-carboxamide hydrochloride]	–	5.00 to 6.00	74	–	–
CCN1CCc2c(sc(NC(=O)Nc3ccc(C(=O)OC(C)(C)C)cc3)c2C(N)=O)C1 [Example 29, tert-Butyl 4-[3-(3-carbamoyl-6-ethyl-4,5,6,7-tetrahydrothieno[2,3-c]pyridin-2-yl)ureido]benzoate]	–	5.00 to 6.00	75	–	–
NC(=O)c1c(NC(=O)Nc2ccc(Cl)cc2)sc2c1CCN(CCCNC(=O)CCc1ccc(C(F)(F)F)cc1)C2 [Example 218, 2-{[(4-chlorophenyl)carbamoyl]amino}-6-(3-{3-[4-(trifluoromethyl)phenyl]propanamido}propyl)-4H,5H,6H,7H-thieno[2,3-c]pyridine-3-carboxamide]	103	> 6.00	–	–	–
CC[N+]1(C)CCc2c(sc(NC(=O)NCc3ccc(Cl)cc3)c2C(N)=O)C1 (stereo not drawn) [Example 148, 3-Carbamoyl-2-[3-(4-chlorobenzyl)ureido]-6-ethyl-6-methyl-4,5,6,7-tetrahydrothieno[2,3-c]pyridin-6-ium iodide]	–	< 5.00	51	–	–
